Assay results taken from US9433655B2, “Composition comprising natural substance extract as active ingredient for preventing or treating acute renal failure” (priority 2012, dated 2016).
Entries after “also recorded” stand apart in the source; their conditions may differ.

Legend:
renal epithelial cells = assay: Measurement of GSH content; format: cell-based; settings: single treatment of cisplatin 25 μg/ml, 24 hours
Description: Monochlorobimane was employed to determine the GSH levels, and experiments for measuring GSH content were performed using the […] with reference to the conventional method of Fernandez-Checa and Kaplowitz. The number of cells, in which GSH is detectable, was determined by historical data and preliminary experiment, and 2×10^6 cells were seeded to each well of culture plate. After culture for 24 hours, the dilution fold of the final concentration of the drug determined as an active drug was considered and calculated, based on the results of MTT Assay and crystal violet Assay. […] Cells were harvested using 0.25% Trypsin-EDTA, and then centrifuged at 1,200 rpm for 3 minutes. Cold buffer was added to the resulting cell pellet, followed by sonication for 30 seconds. Centrifugation was carried out at 10,000 rpm for 15 minutes, and then the supernatant was collected and used for BCA protein quantification. 1 g/ml of MPA diluted in D.W was added to the supernatant at a volume ratio of 4:1, followed by immediately vortexing. […] End-point fluorescence wavelength at Ex: 360 nm and Em: 460 nm was measured at S=70. Data of the experimental results were analyzed using a Microsoft Excel program, and post-test analysis using Bonferroni multiple comparison test was performed to investigate the differences between the groups. p<0.001 was considered statistically significant.

p53 = assay: Examination of p53 expression pattern (Western blot); format: cell-based; settings: single treatment of cisplatin
Description: Cells treated with Elsholtziae Herba extract and/or cisplatin were harvested, and RIPA buffer was added thereto, followed by sonication for cell lysis. Centrifugation was performed at 15,000 rpm for 15 minutes, and the supernatant was obtained, and subjected to protein quantification by BCA assay. The protein was loaded at an amount of 20 μg/10 μl in each well, and 12% SDS-PAGE polyacrylamide gel electrophoresis was performed, and transferred to a nitrocellulose membrane. The membrane was blocked with 5% Skim milk-TBST, and then treated with primary antibody (anti-p53/dilution—1:300). p53 was detected with HRP conjugated anti-mouse IgG (dilution—1:5000) and immune reaction was visualized by ECL. The measurement results are shown as Mean±S.E.M. (standard error of mean) in FIG. 6.

For `N.N.[Cl][Pt][Cl]` [cisplatin, cis-diaminedichloroplatinum II], the GSH content (renal epithelial cells) was “reduced GSH content” and the p53 expression level (p53) was “increased p53 expression; also recorded: remarkably increased”.
